Converted amounts (≈) assume the structure as drawn. “And” between values parts separate entries of the source, which are not always exact repeats. Identical values can stand only once. Like-named read-outs stand apart in the source and are kept apart here. Residues, ends and D or L forms follow the SMILES beside them.
Assays:
[1] = Hemolysis assay; format: cell-based; settings: for HC50 at 1 h: human, washed erythrocytes from EDTA-blood, pH 7.4
How it was run: (§1)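 Washed EDTA-blood erythrocytes in 5% PBS, pH 7.4, were rotated 1 h at 37° C with peptides at 0, 3, 10, 30, 60 μm. Hemoglobin release read at 540 nm as % of 0.1% Triton X-100 hemolysis; CC50 from dose-response curve of triplicates.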

[2] = test system: erythrocytes; assay: Hemolysis assay; format: cell-based
How it was run: as §1

[3] = test system: E. coli ATCC 25922; format: cell-based, Escherichia coli; settings: ATCC 25922, 2 h
Protocol: (§2) Inhibition of bacterial growth was determined using resazurin as a marker for cell viability. Resazurin was added to each well, at 0.001% final concentration, and plates incubated at 37° C. for 2 h. Fluorescence intensity was measured, using F (top read), ex 560/10 nm, em 590/10 nm, using a Tecan M1000 Pro monochromator plate reader.

[4] = test system: methicillin-resistant S. aureus strain (ATCC 43300); format: cell-based, Staphylococcus aureus; settings: ATCC 43300, 18 h
Protocol: Furthermore, sensitivity of a methicillin-resistant S. aureus strain (ATCC 43300) was investigated for palmitoylated CIDAMPs in a microtiter plate screening model, with incubation in Mueller-Hinton medium at 37° C. for 18 h using resazurin as a marker for cell viability.
A sample of each culture was then diluted 40-fold in fresh broth and incubated at 37° C. for 1.5-3 h. […] All the plates were covered and incubated at 37° C. for 18 h.
as §2

[5] = test system: C. albicans ATCC 928; settings: for MIC: ATCC 928, 18 h, pH 7.4
[6] = test system: P. aeruginosa ATCC 27853; format: cell-based, Pseudomonas aeruginosa; settings: ATCC 27853, 2 h
Protocol: as §2

[7] = test system: C. neoformans
[8] = Cytotoxicity (resazurin) assay
How it was run: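 CC50 values were derived by fitting concentration-dependent percentage cytotoxicity to a dose–response function. The read-out was resazurin fluorescence (ex 560, em 590 nm; 100 μM, 3 h) after 20 h compound treatment of HEK293 cells at 37 °C in DMEM with 10% FBS.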

[9] = test system: A. baumannii ATCC 19606; format: cell-based, Acinetobacter baumannii; settings: ATCC 19606, 2 h
Protocol: as §2

[10] = test system: Salmonella typhimurium ATCC 13311; assay: CFU-assay, antimicrobial activity spectrum; format: cell-based
[11] = test system: P. aeruginosa ATCC 10145; assay: CFU-assay, P. aeruginosa-cidal activity; format: cell-based, Pseudomonas aeruginosa
[12] = test system: Escherichia coli ATCC11775; assay: CFU-assay, antimicrobial activity spectrum; format: cell-based
[13] = test system: Staphylococcus epidermidis ATCC 14990; assay: CFU-assay, antimicrobial activity spectrum; format: cell-based; settings: pH 5.5, 0.25% glucose
[14] = test system: S. aureus ATCC 6538; assay: CFU-assay, S. aureus-cidal activity; format: cell-based, Staphylococcus aureus
How it was run: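 Bactericidal CFU-assay in nutrient-deficient 10 mM sodium phosphate buffer pH 5.5 with 0.25% glucose, counting surviving colonies across twofold peptide dilutions from 300 μg/ml to 19 ng/ml. Output is minimal bactericidal concentration (e.g. MBC90, MBC100); some peptides also tested at pH 7.0.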

[15] = test system: Streptococcus pyogenes ATCC 12344; assay: CFU-assay, antimicrobial activity spectrum; format: cell-based
[16] = test system: Burkholderia cepacia ATCC 25416; assay: CFU-assay, Burkholderia cepacia-cidal activity; format: cell-based
[17] = test system: Streptococcus pneumoniae ATCC 33400; assay: CFU-assay, antimicrobial activity spectrum; format: cell-based; settings: pH 7.3, 0.25% glucose
[18] = test system: Klebsiella pneumoniae ATCC 13883; assay: CFU-assay, Klebsiella pneumoniae-cidal activity; format: cell-based
[19] = test system: Candida albicans ATCC 24433; assay: CFU-assay, Candida albicans-cidal activity; format: cell-based
Protocol: Thus, within the present invention, the antimicrobial activity is generally measured in nutrient deficient 10 mM sodium phosphate buffer pH 5.5, containing 0.25% glucose, using the CFU-assay according to Steinberg and Lehrer, 1997 (supra), unless otherwise indicated. The CFU-assay allows determination of the minimal bactericidal concentration (MBC, e.g., MBC90 and MBC100; i.e. the concentration of compound required to achieve a specified reduction in bacterial cell number (microbial death or killing)). […]
HR 1-17 affects C. albicans ATCC 24433 with highest activity at pH 5.5 in the absence of TSB in the medium (see Tables 12, 24). […] Furthermore, the substitution of any of the Arg residues by Gly leads to a dramatic reduction or loss of candidacidal activity (see Table 24).

[20] = standard conditions at pH 7.4, activity at concentration <32 pg/ml

## CCCCCCCCCCCCCCCC(=O)NCC(=O)N[C@@H](CCCNC(=N)N)C(=O)N[C@@H](CCCNC(=N)N)C(=O)NCC(=O)N[C@@H](CO)C(=O)NCC(=O)N[C@@H](CC(C)C)C(=O)NCC(=O)N[C@@H](CCCNC(=N)N)C(=O)N[C@@H](CO)C(=O)N[C@@H](CO)C(=O)N[C@@H](CO)C(=O)N[C@@H](CCCNC(=N)N)C(=O)NCC(=O)N[C@@H](CCC(N)=O)C(=O)N[C@@H](CCCNC(=N)N)C(=O)NCC(=O)N[C@@H](CO)C(=O)NCC(=O)N[C@@H](CO)C(=O)NCC(=O)N[C@@H](CCCNC(=N)N)C(=O)O [Pal-HR 1-18 HR] (HELM PEPTIDE1{[CCCCCCCCCCCCCCCC(=O)[*:2]].G.R.R.G.S.G.L.G.R.S.S.S.R.G.Q.R.G.S.G.S.G.R}$$$$V2.0)
[1]
  HC50: > 300 µg/mL
  HC50 at 1 h: > 119 µM
[2]
  hemolytic activity (in words): low hemolytic activity
[3]
  MIC, E. coli ATCC 25922: ≥4 mg/L
[4]
  MIC, S. aureus ATCC 43300: ≥8 mg/L
[5]
  MIC: 1 to 32 mg/L
[6]
  MIC, P. aeruginosa ATCC 27853: ≥16 mg/L
[7]
  MIC, C. neoformans ATCC 208821: ≥1 mg/L
[8]
  CC50: > 32 µg/mL and > 13.3 µM
[9]
  MIC, A. baumannii ATCC 19606: ≥1 mg/L

## CCCCCCCCCCCCCCCC(=O)N[C@@H](CO)C(=O)N[C@@H](Cc1c[nH]cn1)C(=O)N[C@@H](Cc1c[nH]cn1)C(=O)N[C@@H](CCCNC(=N)N)C(=O)N[C@@H](CS)C(=O)N[C@@H](CS)C(=O)N[C@@H](CCCNC(=N)N)C(=O)N[C@@H](CO)C(=O)N[C@@H](Cc1c[nH]cn1)C(=O)N[C@@H](CCCNC(=N)N)C(=O)N[C@@H](CS)C(=O)N[C@@H](CCCNC(=N)N)C(=O)N[C@@H](CCCNC(=N)N)C(=O)O [Pal-LCE3B56-68] (HELM PEPTIDE1{[CCCCCCCCCCCCCCCC(=O)[*:2]].S.H.H.R.C.C.R.S.H.R.C.R.R}$$$$V2.0)
[10]; pH 5.5
  MBC90: 0.02 µM
  MBC100: 0.155 µM
[10]; pH 5.5, 0.25% glucose
  MBC90: 0.038 mg/L
  MBC100: 0.3 mg/L
[10]; pH 7.3, 0.25% glucose
  MBC90: 1.18 mg/L
  MBC100: 2.35 mg/L
[1]
  CC50: > 100 mg/L
  HC50 at 1 h: > 78 µM
[4]
  MIC, S. aureus ATCC 43300: ≥16 mg/L
[11]; pH 5.5
  P. aeruginosa MBC90: 0.088 µM
  P. aeruginosa MBC100: 0.176 µM
[11]; pH 5.5, 0.25% glucose
  MBC90: 0.075 mg/L (≈ 0.0388 µM)
  MBC100: 0.3 mg/L (≈ 0.155 µM)
[5]; ATCC 928
  MIC, C. albicans ATCC 90028: ≥1 mg/L
[5]
  MIC: 1 to 32 mg/L
[5]; [20]
  Antifungal activity, C. albcans ATCC90028: A (A-active)
[12]; pH 5.5, 0.25% glucose
  MBC90: 0.3 mg/L (≈ 0.155 µM)
[12]; pH 7.3, 0.25% glucose
  MBC90: 0.59 mg/L (≈ 0.305 µM)
  MBC100: 1.18 mg/L (≈ 0.611 µM)
[13]
  MBC90: 0.3 mg/L (≈ 0.155 µM)
  MBC100: 0.3 mg/L (≈ 0.155 µM)
[14]; pH 5.5
  S. aureus MBC90: 0.011 µM
  S. aureus MBC100: 0.078 µM
[14]; pH 5.5, 0.25% glucose
  MBC90: <0.019 mg/L
  MBC100: 0.15 mg/L (≈ 0.0776 µM)
[15]; pH 6.0, 0.25% glucose
  MBC90: 0.15 mg/L (≈ 0.0776 µM)
  MBC100: 0.59 mg/L (≈ 0.305 µM)
[15]; pH 7.3, 0.25% glucose
  MBC90: 0.15 mg/L (≈ 0.0776 µM)
  MBC100: 0.3 mg/L (≈ 0.155 µM)
[16]; pH 5.5, 0.25% glucose
  MBC90: >300 mg/L
  MBC100: >300 mg/L
[16]; pH 7.3
  MB100: 4.9 µM
  MBC90: 2.4 µM
[16]; pH 7.3, 0.25% glucose
  MBC90: 4.7 mg/L
  MBC100: 9.38 mg/L (≈ 4.85 µM)
[16]; pH 7.3, 0.25% glucose, listed as palmitoyl-LCE3B56-68
  MBC100: 9.375 mg/L (≈ 4.85 µM)
[17]
  MBC90: 0.59 mg/L (≈ 0.305 µM)
  MBC100: 2.35 mg/L (≈ 1.22 µM)
[7]
  MIC, C. neoformans ATCC 208821: ≥0.25 mg/L
[7]; [20]
  Antifungal activity, C. neoformans ATCC 208821: A (A-active)
[18]; pH 5.5
  MBC90: 0.052 µM
  MBC100: 4.9 µM
[18]; pH 5.5, 0.25% glucose
  MBC90: 0.15 mg/L
  MBC100: 9.375 mg/L
[18]; pH 7.3, 0.25% glucose
  MBC90: 2.35 mg/L
  MBC100: 4.7 mg/L
[8]
  CC50: > 32 µg/mL and > 16.6 µM

## GRHGSGLGHSSSHGQHGSGSGRSSSRGPY (Peptide derived from human hornerin (HR 1-17))
[19]
  MBC90: 0.56 µM
[19]; pH 5.5, 0.25% glucose
  MBC90: 1.18 mg/L
  MBC100: 9.38 mg/L
[19]; pH 5.5, 1% TSB
  MBC100: 150 mg/L and >300 mg/L
[19]; pH 7.2, 1.% TSB
  MBC90: >300 mg/L
  MBC100: >300 mg/L
[11]; pH 5.0, 0.25% glucose
  MBC90: 0.038 mg/L and 0.0375 mg/L
  MBC100: 0.15 mg/L
[11]; pH 5.5, 0.25% glucose
  MBC100: 0.15 mg/L and 0.3 mg/L
[11]; pH 5.5, 1% TSB
  MBC90: 0.59 mg/L
  MBC100: 18.75 mg/L
[12]; pH 5.5, 1% TSB
  MBC90: >300 mg/L
  MBC100: >300 mg/L
[14]; pH 5.5, 1% TSB
  MBC90: >300 mg/L
  MBC100: >300 mg/L
[16]; pH 5.5, 0.25% glucose
  MBC90: >300 mg/L
  MBC100: >300 mg/L

— patent US11479587B2, “Cationic intrinsically disordered antimicrobial peptides” (priority 2016, dated 2022)
